# Measured values published in PMC5676250, “Cholesterol-directed nanoparticle assemblies based on single amino acid peptide mutations activate cellular uptake and decrease tumor volume” (Chemical Science, 2017).
# Where two headings read alike, the source gives them in different places. Residues, ends and D or L forms follow the SMILES beside them. No end group written: not given here. *: point of attachment. X1 = CC(C)CCC[C@@H](C)[C@H]1CC[C@H]2[C@@H]3CC=C4C[C@@H](OCC(=O)*)CC[C@]4(C)[C@H]3CC[C@]12C
# Key:
# [1] = system: SKOV-3 ovarian cancer cells; conditions: 24 h
# Description: SKOV-3 cells were seeded in a 35 mm petri dish with a glass cover slide and allowed […]
# SKOV-3 cells = assay: MTT assay of endocytosis inhibitors, 40 min; format: cell-based
# Description: The cytotoxicity was tested using an MTT assay. […] A combined solution of 5 mg mL^-1 MTT/PBS (10 μL per well) was added to each well of the 96-well plate assay, and the cells were incubated for an additional 4 hours. Formazan extraction was performed with DMSO and quantified colorimetrically using a Synergy H4 Hybrid Microplate reader (Biotek, USA), which was used to measure the OD 490 nm (absorbance value). The following formula was used to calculate the viability of cell growth: viability (%) = (mean of absorbance value of treatment group-blank/mean absorbance value of control-blank) × 100 (MTT was purchased from Sigma-Aldrich).
# in vitro = conditions: mouse, serum, pH 8.2
# Description: A 1.5 mL mixture consisting of 30 μL mouse serum, 750 μL of peptides (1 mg mL^–1) and 1470 μL of digestion buffer (pH 8.2, 50 mM Tris, 20 mM CaCl2) was incubated at 37 °C for 16 h. Peptides treated with digestion buffer served as controls. Aliquots of 400 μL were withdrawn from the mixture and quenched with 400 μL of 1% trifluoroacetic acid (TFA) solution at 1 h, 8 h and 16 h. The quenched solution was analysed by reverse-phase high performance liquid chromatography (RP-HPLC). […]
# to adhere overnight at 37 °C under 5% CO2. The cell culture medium was then removed and replaced with fresh McCoy’s 5A medium containing HAL-2 (10 μM) or HAL-C (10 μM) for 1 h. After the medium was removed and the cells were washed with PBS (1 mL × 3 times), 1 mL of PBS containing 4 μL staining solution was added for 1 h.
# The cells were then washed with PBS (1 mL × 3 times) before imaging. Cell fluorescence images were obtained with a confocal laser scanning microscope. […] for Tubulin-Trakcer Red: excitation: 561 nm, emission collected: 570 -620 nm; Blue channel for DAPI: excitation: 405 nm, emission collected: 425 -475 nm. (Tubulin-Trakcer Red were purchased from Beyotime Biotechnology) […]
# SKOV-3 cells were seeded in a 35 mm petri dish with a glass cover slide and allowed to adhere overnight at 37 °C under 5% CO2. […] Cell fluorescence images were obtained with a confocal laser scanning microscope. […]
# A 1.5 mL mixture consisting of 30 μL serum, 750 μL of peptides (1 mg/mL) , and 1470 μL of digestion buffer (pH 8.2, 50 mM Tris, 20 mM CaCl 2 ) was incubated at 37 °C for 16 h. […] The quenched solution was analyzed by reverse -phase […]
# In vivo antitumor studies: When the tumors reached a mean volume of 50 mm 3 after inoculation of SKOV-3 cells, the mice were randomly separated into three groups (N=3/group): (1) negative control (PBS); (2) HAL-2; (3) HAL-C. […] During therapy, the tumor volumes and body weights were measured every two days. Length and width of tumors were measured individually using a Vernier caliper. Tumor volumes were calculated using the following formula: tumor volume = length × width 2 × 0.5. […]
# [2] = MTT, 40 min incubation, tested inhibitor concentrations (Fig. S17)
compound,measurement,setting,value
CC[C@H](C)[C@H](NC(=O)[C@H](Cc1c[nH]cn1)NC(=O)[C@H](CCCCN)NC(=O)[C@H](CC(C)C)NC(=O)[C@H](CCCCNC(=O)CO[C@H]1CC[C@@]2(C)C(=CC[C@H]3[C@@H]4CC[C@H]([C@H](C)CCCC(C)C)[C@@]4(C)CC[C@@H]32)C1)NC(=O)[C@H](CO)NC(=O)[C@H](CCSC)NC(=O)[C@H](Cc1c[nH]c2ccccc12)NC(=O)[C@H](CCCCN)NC(=O)CN)C(=O)N[C@@H](CC(C)C)C(=O)N[C@@H](CCCCN)C(N)=O [HAL-C] (H-GKWMSK(X1)LKHILK-NH2),IC50,[1],12.7 ± 0.1 µM
"CN(C)CCCN1c2ccccc2Sc2ccc(Cl)cc21 [CPZ, chlorpromazine]",decrease of SKOV-3 cell viability,SKOV-3 cells; [2],38%
CSCC[C@H](NC(=O)[C@H](Cc1c[nH]c2ccccc12)NC(=O)[C@H](CCCCN)NC(=O)CN)C(=O)N[C@@H](CO)C(=O)N[C@@H](CC(C)C)C(=O)N[C@@H](CC(C)C)C(=O)N[C@@H](CCCCN)C(=O)N[C@@H](Cc1c[nH]cn1)C(=O)N[C@@H](CCCCNC(=O)CO[C@H]1CC[C@@]2(C)C(=CC[C@H]3[C@@H]4CC[C@H]([C@H](C)CCCC(C)C)[C@@]4(C)CC[C@@H]32)C1)C(=O)N[C@@H](CC(C)C)C(=O)N[C@@H](CCCCN)C(N)=O [HAL-D] (H-GKWMSLLKHK(X1)LK-NH2),IC50,[1],16.2 ± 0.1 µM
methyl-beta cyclodextrin [MBCD],decrease of SKOV-3 cell viability,SKOV-3 cells,no significant effects
"N=C(N)NC(=O)c1nc(Cl)c(N)nc1N [AM, amiloride]",decrease of SKOV-3 cell viability,SKOV-3 cells; [2],20%
GKWMSLLKHILK-NH2 [HAL-2],remaining at 1 h,in vitro,55.4%
same,remaining at 8 h,in vitro,29.4%
same,remaining at 16 h,in vitro,11.2%
same,IC50,[1],54.1 ± 0.5 µM
CC[C@H](C)[C@H](NC(=O)[C@H](Cc1c[nH]cn1)NC(=O)[C@H](CCCCNC(=O)CO[C@H]1CC[C@@]2(C)C(=CC[C@H]3[C@@H]4CC[C@H]([C@H](C)CCCC(C)C)[C@@]4(C)CC[C@@H]32)C1)NC(=O)[C@H](CC(C)C)NC(=O)[C@H](CC(C)C)NC(=O)[C@H](CO)NC(=O)[C@H](CCSC)NC(=O)[C@H](Cc1c[nH]c2ccccc12)NC(=O)[C@H](CCCCN)NC(=O)CN)C(=O)N[C@@H](CC(C)C)C(=O)N[C@@H](CCCCN)C(N)=O [HAL-B] (H-GKWMSLLK(X1)HILK-NH2),IC50,[1],24.6 ± 0.1 µM
